# Experimental data: patent US12384776B2, “Compounds and uses thereof” (Foghorn Therapeutics Inc., priority 2019, dated 2025)
# Molecular target: BRD9 bromodomain (Homo sapiens (Human), UniProt Q9H8M2)
# Test: BRD9 bromodomain TR-FRET competition binding assay
# Details: not given
# Procedure: Procedure: His-Flag-BRD9 (P133-K239; Swiss Prot Q9H8M2; SEQ ID NO:1 mgsshhhhhhenlyfq/gdykddddkgslevlfqg/[…] […]) was cloned, expressed, purified, and then treated with TEV protease. Cleaved His tag was removed by purification. The binding of a biotinylated small molecule ligand of BRD9 was assessed via the LANCE® TR-FRET platform (PerkinElmer), and the compounds were assayed for inhibitory activity against this interaction.
# Results: A mixture of biotinylated-ligand and SureLight™ Allophycocyanin-Streptavidin (APC-SA, PerkinElmer AD0201) in 50 mM HEPES (pH 7.4), 50 mM NaCl, 1 mM TCEP (pH 7), 0.01% (v/v) Tween-20, 0.01% (w/v) bovine serum albumin was added to a white 384-well PerkinElmer Proxiplate Plus plate. DMSO or 3-fold serially diluted compounds were then added to the Proxiplate followed by addition of Flag-BRD9. After a 10-minute incubation at room temperature, Eu—W1024 anti-FLAG (PerkinElmer, AD0273) was added. The final reaction mixture that contained 3.75 nM biotinylated ligand, 3 nM Flag-BRD9, 7.5 nM SureLight™ Allophycocyanin-Streptavidin, and 0.2 nM Eu—W1024 anti-FLAG was incubated at room temperature for 90 minutes.
# The plates were then read on a PerkinElmer Envision plate reader to determine the ratio of emission at 665 nm over 615 nm. […]
# Chain of BRD9 bromodomain (Q9H8M2 133-239): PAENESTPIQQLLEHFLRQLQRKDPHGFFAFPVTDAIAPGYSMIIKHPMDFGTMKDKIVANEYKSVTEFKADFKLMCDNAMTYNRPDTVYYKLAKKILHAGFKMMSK
row,SMILES,IC50
1,"COc1cc(-c2cn(C)c(=O)c3c2CCN(C(=O)NC2CC2)C3)cc(OC)c1CN(C)C [Compound B8, N-cyclopropyl-5-(4-((dimethylamino)methyl)-3,5-dimethoxyphenyl)-7-methyl-8-oxo-3,4,7,8-tetrahydro-2,7-naphthyridine-2 (1H)-carboxamide]",> 10 nM
2,"CCCCNC(=O)N1CCc2c(-c3cc(OC)c(CN(C)C)c(OC)c3)cn(C)c(=O)c2C1 [Compound B7, N-butyl-5-(4-((dimethylamino)methyl)-3,5-dimethoxyphenyl)-7-methyl-8-oxo-3,4,7,8-tetrahydro-2,7-naphthyridine-2 (1H)-carboxamide]",< 10 nM
3,"COc1cc(-c2cn(C)c(=O)c3c2CNC(C(=O)O)C3)cc(OC)c1CN(C)C (stereo not drawn) [Compound B2, 8-[4-[(dimethylamino)methyl]-3,5-dimethoxyphenyl]-6-methyl-5-oxo-1,2,3,4,5,6-hexahydro-2,6-naphthyridine-3-carboxylic acid]",> 1000 nM
4,"COc1cc(-c2cn(C)c(=O)c3c2CCN(C(N)=O)C3)cc(OC)c1CN(C)C [Compound B13, 5-[4-[(dimethylamino)methyl]-3,5-dimethoxyphenyl]-7-methyl-8-oxo-1,2,3,4,7,8-hexahydro-2,7-naphthyridine-2-carboxamide]",> 10 nM
5,"CNC(=O)C1Cc2c(c(-c3cc(OC)c(CN(C)C)c(OC)c3)cn(C)c2=O)CN1 (stereo not drawn) [Compound B3, 8-[4-[(dimethylamino)methyl]-3,5-dimethoxyphenyl]-N,6-dimethyl-5-oxo-1,2,3,4,5,6-hexahydro-2,6-naphthyridine-3-carboxamide]",> 1000 nM
6,"COc1cc(-c2cn(C)c(=O)c3c2CCN(C(=O)NC2CCN(CCOc4ccc5c(c4)C(=O)N(C4CCC(=O)NC4=O)C5=O)CC2)C3)cc(OC)c1CN(C)C (stereo not drawn) [Compound D26, 5-[4-[(dimethylamino)methyl]-3,5-dimethoxyphenyl]-N-[1-(2-[[2-(2,6-dioxopiperidin-3-yl)-1,3-dioxoisoindol-5-yl]oxy]ethyl)piperidin-4-yl]-7-methyl-8-oxo-3,4-dihydro-1H-2,7-naphthyridine-2-carboxamide formic acid]",< 10 nM
7,"CCN1CCc2c(-c3cc(OC)c(CN(C)C)c(OC)c3)cn(C)c(=O)c2C1 [Compound B15, 4-[4-[(dimethylamino)methyl]-3,5-dimethoxyphenyl]-7-ethyl-2-methyl-1,2,5,6,7,8-hexahydro-2,7-naphthyridin-1-one formic acid]",> 1000 nM
8,"COc1cc(-c2cn(C)c(=O)c3c2CN(C(=O)NCCOCCNc2cccc4c2C(=O)N(C2CCC(=O)NC2=O)C4=O)CC3)cc(OC)c1CN(C)C (stereo not drawn) [Compound D27, 8-[4-[(dimethylamino)methyl]-3,5-dimethoxyphenyl]-N-[2-(2-[[2-(2,6-dioxopiperidin-3-yl)-1,3-dioxoisoindol-4-yl]amino]ethoxy)ethyl]-6-methyl-5-oxo-3,4-dihydro-1H-2,6-naphthyridine-2-carboxamide formic acid]",> 100 nM
9,"CCCCNC(=S)N1CCc2c(-c3cc(OC)c(CN(C)C)c(OC)c3)cn(C)c(=O)c2C1 [Compound B20, N-butyl-5-(4-((dimethylamino)methyl)-3,5-dimethoxyphenyl)-7-methyl-8-oxo-3,4,7,8-tetrahydro-2,7-naphthyridine-2 (1H)-carbothioamide]",> 10 nM
10,"COc1cc(-c2cn(C)c(=O)c3c2CCN(C(=O)NCCCCCC(=O)N[C@H](C(=O)N2C[C@H](O)C[C@H]2C(=O)NCc2ccc(-c4scnc4C)cc2)C(C)(C)C)C3)cc(OC)c1CN(C)C [Compound D36, (2S,4R)-1-[(2S)-2-[6-(5-[4-[(dimethylamino)methyl]-3,5-dimethoxyphenyl]-7-methyl-8-oxo-3,4-dihydro-1H-2,7-naphthyridine-2-carbonylamino)hexanamido]-3,3-dimethylbutanoyl]-4-hydroxy-N-[[4-(4-methyl-1,3-thiazol-5-yl)phenyl]methyl]pyrrolidine-2-carboxamide]",> 10 nM
11,"COc1cc(-c2cn(C)c(=O)c3c2CCN(C(=O)NCCOCCOCC(=O)N[C@H](C(=O)N2C[C@H](O)C[C@H]2C(=O)NCc2ccc(-c4scnc4C)cc2)C(C)(C)C)C3)cc(OC)c1CN(C)C [Compound D34, (2S,4R)-1-[(2S)-2-(2-[2-[2-(5-[4-[(dimethylamino)methyl]-3,5-dimethoxyphenyl]-7-methyl-8-oxo-3,4-dihydro-1H-2,7-naphthyridine-2-carbonylamino)ethoxy]ethoxy]acetamido)-3,3-dimethylbutanoyl]-4-hydroxy-N-[[4-(4-methyl-1,3-thiazol-5-yl)phenyl]methyl]pyrrolidine-2-carboxamide formic acid]",> 10 nM
12,"COc1cc(-c2cn(C)c(=O)c3c2CCN(C)C3)cc(OC)c1CN(C)C [Compound B16, 4-[4-[(dimethylamino)methyl]-3,5-dimethoxyphenyl]-2,7-dimethyl-1,2,5,6,7,8-hexahydro-2,7-naphthyridin-1-one formic acid]",> 1000 nM
13,"COc1cc(-c2cn(C)c(=O)c3c2CCN(C(=O)NCCOCCOCCOCC(=O)N[C@@H](C(=O)N2C[C@@H](O)C[C@@H]2C(=O)NCc2ccc(-c4scnc4C)cc2)C(C)(C)C)C3)cc(OC)c1CN(C)C [Compound D35, (2R,4S)-1-[(2R)-2-[2-(2-[2-[2-(5-[4-[(dimethylamino)methyl]-3,5-dimethoxyphenyl]-7-methyl-8-oxo-3,4-dihydro-1H-2,7-naphthyridine-2-carbonylamino)ethoxy]ethoxy]ethoxy)acetamido]-3,3-dimethylbutanoyl]-4-hydroxy-N-[[4-(4-methyl-1,3-thiazol-5-yl)phenyl]methyl]pyrrolidine-2-carboxamide]",> 10 nM
14,"CCNC(=O)N1CCc2c(-c3cc(OC)c(CN(C)C)c(OC)c3)cn(C)c(=O)c2C1 [Compound B5, 5-(4-((dimethylamino)methyl)-3,5-dimethoxyphenyl)-N-ethyl-7-methyl-8-oxo-3,4,7,8-tetrahydro-2,7-naphthyridine-2 (1H)-carboxamide]",< 10 nM
15,"COc1cc(-c2cn(C)c(=O)c3c2CCN(CCO)C3)cc(OC)c1CN(C)C [Compound B10, 4-[4-[(dimethylamino)methyl]-3,5-dimethoxyphenyl]-7-(2-hydroxyethyl)-2-methyl-1,2,5,6,7,8-hexahydro-2,7-naphthyridin-1-one]",> 1000 nM
16,"CCCCNS(=O)(=O)N1CCc2c(-c3cc(OC)c(CN(C)C)c(OC)c3)cn(C)c(=O)c2C1 [Compound B19, N-butyl-5-{4-[(dimethylamino)methyl]-3,5-dimethoxyphenyl}-7-methyl-8-oxo-1,2,3,4,7,8-hexahydro-2,7-naphthyridine-2-sulfonamide]",> 10 nM
17,"CCOC(=O)N1CCc2c(-c3cc(OC)c(CN(C)C)c(OC)c3)cn(C)c(=O)c2C1 [Compound B11, ethyl 5-[4-[(dimethylamino)methyl]-3,5-dimethoxyphenyl]-7-methyl-8-oxo-1,2,3,4,7,8-hexahydro-2,7-naphthyridine-2-carboxylate]",> 1000 nM
18,"COc1cc(-c2cn(C)c(=O)c3c2CNC(C(N)=O)C3)cc(OC)c1CN(C)C (stereo not drawn) [Compound B4, 8-[4-[(dimethylamino)methyl]-3,5-dimethoxyphenyl]-6-methyl-5-oxo-1,2,3,4,5,6-hexahydro-2,6-naphthyridine-3-carboxamide]",> 1000 nM
19,"CNC(=O)N1CCc2c(c(-c3cc(OC)c(CN(C)C)c(OC)c3)cn(C)c2=O)C1 [Compound B18, 8-[4-[(dimethylamino)methyl]-3,5-dimethoxyphenyl]-N,6-dimethyl-5-oxo-3,4-dihydro-1H-2,6-naphthyridine-2-carboxamide]",> 10 nM
20,"COc1cc(-c2cn(C)c(=O)c3c2CCN(C(=O)N(C)C)C3)cc(OC)c1CN(C)C [Compound B6, 5-(4-((dimethylamino)methyl)-3,5-dimethoxyphenyl)-N,N,7-trimethyl-8-oxo-3,4,7,8-tetrahydro-2,7-naphthyridine-2 (1H)-carboxamide]",> 100 nM

# Molecular target: Nanoluciferase-BRD9 fusion protein (3×FLAG-NLuc-BRD9) in SYO-1 cells (Homo sapiens (Human), UniProt Q9H8M2)
# Sequence (Q9H8M2 whole entry, the tested form may be a part): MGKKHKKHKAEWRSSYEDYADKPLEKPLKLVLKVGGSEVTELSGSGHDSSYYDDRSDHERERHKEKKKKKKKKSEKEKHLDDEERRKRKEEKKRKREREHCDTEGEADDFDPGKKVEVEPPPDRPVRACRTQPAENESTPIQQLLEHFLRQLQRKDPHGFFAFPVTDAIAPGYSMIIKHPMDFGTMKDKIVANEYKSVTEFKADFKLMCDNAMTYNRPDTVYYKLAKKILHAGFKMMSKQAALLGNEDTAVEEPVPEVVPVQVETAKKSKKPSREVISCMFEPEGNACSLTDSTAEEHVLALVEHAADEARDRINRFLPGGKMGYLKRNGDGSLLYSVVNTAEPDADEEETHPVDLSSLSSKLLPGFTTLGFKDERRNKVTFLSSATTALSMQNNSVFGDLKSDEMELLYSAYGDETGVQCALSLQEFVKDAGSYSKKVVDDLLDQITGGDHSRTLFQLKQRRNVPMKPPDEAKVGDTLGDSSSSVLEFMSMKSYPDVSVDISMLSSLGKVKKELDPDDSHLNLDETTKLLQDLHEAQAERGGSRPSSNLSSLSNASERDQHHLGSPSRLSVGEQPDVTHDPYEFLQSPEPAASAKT
# Test: SYO1 BRD9 NanoLuc degradation assay
# Type: cell-based
# Details: SYO-1 cells expressing 3×FLAG-NLuc-BRD9, 6 hours incubation, top dose 1 μM
# In short: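 Degradation read as loss of NLuc signal after 6 h compound exposure (1 μM top final, 3-fold steps, 10 points, duplicates) in SYO-1 cells stably carrying 3×FLAG-NLuc-BRD9. Signal normalised between DMSO-treated cells and cells given 1 μM of a known BRD9 degrader.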
row,SMILES,IC50
1,CNC(=O)N1CCc2c(-c3cc(OC)c(CN4CCC(CCN(C)C5CN(c6ccc7c(c6)C(=O)N(C6CCC(=O)NC6=O)C7=O)C5)CC4)c(OC)c3)cn(C)c(=O)c2C1 (stereo not drawn) [Compound D171],< 10 nM
2,CNC(=O)N1CCc2c(-c3cc(OC)c(CN4CCC5(CC4)CN(CCN4CCN(c6ccc7c(c6)C(=O)N(C6CCC(=O)NC6=O)C7=O)CC4)CCO5)c(OC)c3)cn(C)c(=O)c2C1 (stereo not drawn) [Compound D202],10 to 100 nM

# Same assay, conditions: SYO-1 cells, 6 hours, Table 6A
row,SMILES,IC50
1,"CNC(=O)N1CCc2c(-c3cc(OC)c(CN(C)C(=O)CCCCCOc4cccc5c4C(=O)N(C4CCC(=O)NC4=O)C5=O)c(OC)c3)cn(C)c(=O)c2C1 (stereo not drawn) [Compound D25, 5-[4-[(6-[[2-(2,6-dioxopiperidin-3-yl)-1,3-dioxoisoindol-4-yl]oxy]-N-methylhexanamido)methyl]-3,5-dimethoxyphenyl]-N,7-dimethyl-8-oxo-3,4-dihydro-1H-2,7-naphthyridine-2-carboxamide]",< 10 nM

# Same assay, conditions: SYO-1 cells, 6 hours, Table 6C
row,SMILES,IC50
1,CNC(=O)N1CCc2c(-c3cc(OC)c(CN4CCN(CCC5CCN(c6ccc7c(c6)C(=O)N(C6CCC(=O)NC6=O)C7)CC5)CC4COC)c(OC)c3)cn(C)c(=O)c2C1 (stereo not drawn) [Compound D340],< 10 nM
